Values joined by “and” are separate entries in the source; they are usually repeats but may differ in a detail not shown here. Equal values may be shown once.
Experiments:
Format in all cases: cell-based
[1] = system: Huh7; assay: Drug sensitivity, MTS cell viability assay (GI50); conditions: Huh7, 96 hours, MTS
Experimental: (§1) Drug sensitivity: Cell lines were screened for drug sensitivity by treatment with specified drugs 24 hours after seeding in appropriate seeding numbers into 96 well plates containing low glucose DME with 10% FBS. The drug was added to the plate in triplicate wells, and the cells are incubated in drug treated medium for 96 hours before cell viability was determined by MTS assay using CellTiter 96® Aqueous non-radioactive cell proliferation assay system (Promega, Madison, Wis. 53711 USA). The MTS assay was performed according to the manufacturer's instructions. Optical density was measured using a Bio-Tek 340 spectrophotometer (Bio-Tek, Winooski, Vt. 05404) and optical readings were then processed in Excel (Microsoft, Redmond, Wash. 98052-7329) and GraphPad Prism 5 linear regression software (GraphPad Software, La Jolla, Calif. 92037 USA) to determine concentration-response curves for calculating relative GI50s. […] The % growth inhibition of the test drug on cells were calculated as: [1−(Test Value)/(Control Value)]×100; these values were used to plot concentration-response curves, and then analyzed with linear regression software.

[2] = system: K562; assay: Drug sensitivity, MTS cell viability assay (GI50)
Experimental: as §1

[3] = system: MDA-MB-231; assay: Drug sensitivity, MTS cell viability assay (GI50)
Experimental: as §1

[4] = system: MDA-MB-361; assay: Drug sensitivity, MTS cell viability assay (GI50); conditions: Homo sapiens, MDA-MB-361, 96 hours
Experimental: as §1

[5] = system: MDA-MB-468; assay: Drug sensitivity, MTS cell viability assay (GI50); conditions: Homo sapiens, MDA-MB-468, 96 h
Experimental: as §1

[6] = system: MOLT-4; assay: Drug sensitivity, MTS cell viability assay (GI50); conditions: Homo sapiens, MOLT-4, 96 hours
Experimental: as §1

[7] = system: N87; assay: Drug sensitivity, MTS cell viability assay (GI50); conditions: N87, 96 hours
Experimental: as §1

[8] = system: K562R; assay: Drug sensitivity, MTS assay, drug resistant cell line; conditions: Gleevec resistant myelogenous leukemia
Experimental: as §1

[9] = system: NCI/ADR-RES; assay: as above; conditions: multi-drug resistant uterine sarcoma
Experimental: as §1

[10] = system: K562; assay: Synergy of Hec1 inhibitor with cytotoxic drug (combination index, MTS)
Experimental: (§2) Synergy: GI50s for selected drugs were determined and used to calculate a concentration ratio for use synergy assays with Hec1 inhibitors. Cells were treated with drugs 24 hours after being seeded in appropriate seeding numbers into 96 well plates containing low glucose DME with 10% FBS. […] Cell viability was determined by MTS assay using a CellTiter 96® Aqueous non-radioactive cell proliferation assay system (Promega, Madison, Wis. 53711 USA) according to the manufacturer's instructions. Optical density was determined using a Bio-Tek 340 spectrophotometer (Bio-Tek, Winooski, Vt. 05404) and were then processed using Excel (Microsoft, Redmond, Wash. 98052-7329) and GraphPad Prism 5 linear regression software (GraphPad Software, La Jolla, Calif. 92037 USA) to determine concentration-response curves for calculating relative GI50s. Synergy was determined by calculating a combination index value using the formula CI (combination index)=(CA,X/ICx,A)+(CB,X/ICx,B), where CA,X and CB,X are the concentrations of drug A and drug B used in combination to achieve x % drug effect. ICx,A and ICx,B are the concentrations for single agents to achieve the same effect.
(§3) Hec1 inhibitor-responsive cancer cells used for screening were treated with a mixture of Hec1 inhibitor and select anti-cancer drug at appropriate concentration ratios and evaluated for cell viability.

[11] = system: MB-231; assay: as above
Experimental: as §2, §3

[12] = system: MB-468; assay: as above
Experimental: as §2, §3

[13] = system: Hep3B; assay: as above; design: key to Combination Index: CI = (CA,X/ICx,A)+(CB,X/ICx,B) at x% drug effect
Experimental: as §2, §3

[14] = system: Huh7; assay: as above; design: key to Combination Index: CI = (CA,X/ICx,A)+(CB,X/ICx,B) at x% drug effect
Experimental: as §2, §3

[15] = system: cells with mutated p53 (MDA-MB-231); assay: p53 siRNA knockdown, sensitivity to Hec1 inhibitor (MTS); conditions: siRNA directed to p53 (sip53)
Experimental: (§4) Gene silencing: Cells were plated into the wells of 96 well plates in appropriate cell numbers and transfected by the siPort NeoFx transfection method (Life Technologies, Carlsbad, Calif. 92008 USA) according to manufacturer instructions, maintained for 24 hours, then treated with drug. Cells were incubated in drug treated medium for 48 hours then analyzed by MTS assay. Control siRNA Life Technologies, Carlsbad, Calif. 92008; Cell Signaling Technology, Danvers, Mass. 01923 USA; and Santa Cruz Biotechnology, Santa Cruz, Calif. 95060 USA), Rb siRNA (#1: Life Technologies, Carlsbad, Calif. 92008 USA; #2: Santa Cruz Biotechnology, Santa Cruz, Calif. 95060 USA) and p53 siRNA (#1: Cell Signaling Technology, Danvers, Mass. 01923 USA; #2: Cell Signaling Technology, Danvers, Mass. 01923 USA) were used. Cells were treated with drugs 24 hours after seeding and incubated with the drugs for 48 hours before MTS assay. The MTS assay was performed according to the manufacturer's instructions (Promega, Madison, Wis. 53711 USA).
(§5) Cells were analyzed for viability and cellular sensitivity expressed in GI50 (nM). RNA from transfected cells were also analyzed for p53 RNA level by quantitative real time PCR. […] Cellular sensitivity is expressed as percent growth inhibition relative to non-drug-treated cells. […]

[16] = system: wild-type p53 cells (A549, HCT116); assay: as above; conditions: siRNA directed to p53 (sip53)
Experimental: as §4, §5

[17] = in combination with doxorubicin
[18] = in combination with Taxol (paclitaxel)
[19] = in combination with topotecan (187.20 nM), ratio used 3.74

For COc1ccc(Oc2cc(C)c(-c3csc(NC(=O)c4ccncc4)n3)c(C)c2)cc1 [compound 101001, N-(4-(4-(4-methoxyphenoxy)-2,6-dimethylphenyl)thiazol-2-yl)isonicotinamide], which GI50 ([1]; Homo sapiens, Huh-7, 96 h) is on record?
Its GI50 is 84.3 nM.

What about the GI50 ([2]; K562, 96 hours, listed as 110001) of the same molecule?
The GI50 was 40.6 nM and 43.8 nM.

What about the GI50 ([3]; Homo sapiens, MDA-MB-231, 96 h) of the same molecule?
Its GI50 is 43.3 nM.

What about the GI50 ([3]; MDA-MB-231, 96 hours, listed as 110001) of the same molecule?
The GI50 was 42.5 nM.

What about the GI50 [4] of the same molecule?
Its GI50 is over 10000 nM.

What about the GI50 [5] of the same molecule?
Its GI50 is 33.6 nM.

What about the GI50 [6] of the same molecule?
The GI50 was over 30000 nM.

And the GI50 [7]?
Its GI50 is over 30000 nM.

And the GI50 ([8]; Homo sapiens, K-562R)?
The GI50 was 29.6 nM.

And the GI50 ([9]; Homo sapiens)?
Its GI50 is 28.6 nM.

What about the Synergy [10, 17] of the same molecule?
Its Synergy is “Yes”.

What about the Synergy ([10]; in combination with paclitaxel) of the same molecule?
Its Synergy is “Yes”.

And the Synergy ([11]; in combination with paclitaxel)?
The Synergy was “Yes”.

And the Synergy ([11]; in combination with topotecan)?
The Synergy was “Yes”.

What about the Synergy [12, 17] of the same molecule?
Its Synergy is “Yes”.

And the Synergy ([12]; in combination with topotecan)?
Its Synergy is “Yes”.

And the Synergy ([13]; in combination with sorafenib)?
Its Synergy is “Antagonistic”.

What about the Synergy ([14]; in combination with KXO1) of the same molecule?
Its Synergy is “Additive”.

What about the Synergy [14, 17] of the same molecule?
The Synergy was “Yes”.

And the Synergy ([14]; in combination with paclitaxel)?
Its Synergy is “Yes”.

And the Synergy ([14]; in combination with sorafenib)?
Its Synergy is “Antagonistic”.

What about the “effect of p53 silencing on cellular sensitivity (GI50)” value [15] of the same molecule?
The value was “not observed”.

And the “effect of p53 silencing on cellular sensitivity (GI50)” value [16]?
Its value is “decreased GI50”.

With COCCOc1cnc(Sc2cc(C)c(-c3csc(NC(=O)c4ccncc4)n3)c(C)c2)cn1 [compound 110095, N-(4-(4-(5-(2-methoxyethoxy)pyrazin-2-ylthio)-2,6-dimethylphenyl)thiazol-2-yl)isonicotinamide] as the molecule, how does the GI50 ([1]; Homo sapiens, Huh-7, 96 h) read?
Its GI50 is 48.9 nM.

What about the GI50 [1] of the same molecule?
Its GI50 is 35 nM.

What about the GI50 ([2]; Homo sapiens, K562, 96 h) of the same molecule?
Its GI50 is 28.2 nM.

What about the GI50 ([3]; Homo sapiens, MDA-MB-231, 96 h) of the same molecule?
Its GI50 is 16.5 nM.

What about the GI50 [5] of the same molecule?
Its GI50 is 21.1 nM.

And the GI50 [8]?
The GI50 was 7.27 nM.

What about the GI50 ([8]; Homo sapiens, K-562R) of the same molecule?
The GI50 was 10.4 nM.

What about the GI50 ([9]; Homo sapiens) of the same molecule?
The GI50 was 19.5 nM.

What about the GI50 [9] of the same molecule?
Its GI50 is 10.4 nM.

And the “Combination Index” value [10, 18]?
The value was 1.64.

What about the “Combination Index” value [10, 17] of the same molecule?
The value was 0.49.

What about the Synergy [10, 17] of the same molecule?
Its Synergy is “Yes”.

And the “Combination Index” value ([10]; in combination with topotecan)?
Its value is 1.38.

And the “Combination Index” value [11, 18]?
Its value is 1.21.

What about the “Combination Index” value [11, 17] of the same molecule?
Its value is 1.26.

What about the “Combination Index” value ([11]; in combination with topotecan) of the same molecule?
The value was 0.71.

What about the Synergy ([11]; in combination with topotecan) of the same molecule?
The Synergy was “Yes”.

What about the “Combination Index” value ([12]; in combination with Taxol) of the same molecule?
The value was 1.08.

What about the “Combination Index” value [12, 17] of the same molecule?
Its value is 0.87.

What about the Synergy [12, 17] of the same molecule?
The Synergy was “Yes”.

What about the “Combination Index” value ([12]; in combination with topotecan) of the same molecule?
Its value is 0.88.

What about the Synergy ([12]; in combination with topotecan) of the same molecule?
Its Synergy is “Yes”.

What about the “Combination Index” value ([13]; in combination with KX01) of the same molecule?
The value was 2.79.

What about the “Combination Index” value ([13]; in combination with Taxol) of the same molecule?
The value was 2.40.

And the “Combination Index” value [13, 17]?
Its value is 2.27.

And the “Combination Index” value ([13]; in combination with sorafenib)?
The value was 1.20.

What about the “Combination Index” value ([13]; in combination with topotecan) of the same molecule?
Its value is 1.48.

What about the “Combination Index” value ([14]; in combination with KX01 (KXO1)) of the same molecule?
Its value is 0.96.

And the “Combination Index” value ([14]; in combination with KX01 (KXO1), listed as 0095)?
Its value is 1.36.

And the Synergy ([14]; in combination with KXO1)?
The Synergy was “Additive”.

What about the “Combination Index” value [14, 18] of the same molecule?
Its value is 0.65.

What about the “Combination Index” value ([14]; in combination with Taxol (paclitaxel), listed as 0095) of the same molecule?
The value was 1.05.

What about the “Combination Index” value [14, 17] of the same molecule?
The value was 0.76.

What about the Synergy ([14]; in combination with paclitaxel) of the same molecule?
Its Synergy is “Yes”.

And the “Combination Index” value ([14]; in combination with sorafenib)?
The value was 1.05.

And the Synergy ([14]; in combination with sorafenib)?
Its Synergy is “Additive”.

What about the “Combination Index” value ([14]; in combination with sorafenib, listed as 0095) of the same molecule?
The value was 0.96.

And the “Combination Index” value ([14]; in combination with topotecan)?
Its value is 0.75.

And the Synergy ([14]; in combination with topotecan (50.91 nM))?
Its Synergy is “Yes”.

What about the “Combination Index” value [14, 19] of the same molecule?
Its value is 0.76.

And the Synergy [14, 19]?
Its Synergy is “Yes”.
